Active and inactive are the calls of the source. Rule as the data show it, for most assays here: actives have a measured EC50 and inactives only a lower limit.
Columns and labels:
H4 = experiment: Luminescence Cell-Based Dose Response HTS to Identify Activators of 5'UTR Stem-Loop Driven Prion Protein mRNA Translation in H4 Neuroglioblastoma Cells. [Related pubchem assays: 1829 (Project Summary), 1814 (Primary HTS)]; type: functional; conditions: Homo sapiens
Protein skinhead-1 = molecular target: T1, Protein skinhead-1 (Caenorhabditis elegans, UniProt P34707); type: functional
T1 sequence (P34707 whole entry): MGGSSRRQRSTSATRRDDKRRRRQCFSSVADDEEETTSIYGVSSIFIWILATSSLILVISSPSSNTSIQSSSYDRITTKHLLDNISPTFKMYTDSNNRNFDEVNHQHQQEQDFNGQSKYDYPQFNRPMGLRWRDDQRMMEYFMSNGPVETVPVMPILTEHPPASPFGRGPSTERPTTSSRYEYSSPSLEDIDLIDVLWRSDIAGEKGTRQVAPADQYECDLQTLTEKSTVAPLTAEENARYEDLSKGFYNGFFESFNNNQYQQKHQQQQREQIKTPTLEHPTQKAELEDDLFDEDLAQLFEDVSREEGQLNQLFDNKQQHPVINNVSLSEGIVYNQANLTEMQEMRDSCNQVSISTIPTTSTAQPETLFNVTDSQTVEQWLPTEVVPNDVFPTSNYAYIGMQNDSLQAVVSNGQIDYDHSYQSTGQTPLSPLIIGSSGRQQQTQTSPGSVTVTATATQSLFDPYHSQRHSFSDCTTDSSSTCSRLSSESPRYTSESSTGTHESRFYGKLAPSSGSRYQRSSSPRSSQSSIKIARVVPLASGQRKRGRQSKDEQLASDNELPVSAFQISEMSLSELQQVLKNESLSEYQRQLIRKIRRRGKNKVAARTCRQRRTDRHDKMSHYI

[1] = Luminescence Cell-Based Dose Response HTS to Identify Activators of Luciferase Translation or Activity in H4 […] Cells. [Related pubchem assays: 1829 (Project Summary), 1814 (Primary HTS)]; type: functional
Paired box protein Pax-8 = Paired box protein Pax-8 (Homo sapiens, UniProt Q06710); experiment: inhibitors of PAX8-driven TPO luciferase reporter, dose response, RMG-I cells, cherry-pick (AID 687027); type: functional, cell-based;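 also: luciferase reporter driven by Pax8 target thyroperoxidase promoter measured by SteadyGlo luminescence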
[2] = molecular target: T2, Corticotropin-releasing factor receptor 2/Corticotropin-releasing factor-binding protein (Homo sapiens, UniProt P24387+Q13324); experiment: activators of CRF receptor 2 with binding protein – uHTS hits, confirmation (AID 602473); type: functional; conditions: read-out: EC50_Mean
T2 sequence (Q13324 whole entry): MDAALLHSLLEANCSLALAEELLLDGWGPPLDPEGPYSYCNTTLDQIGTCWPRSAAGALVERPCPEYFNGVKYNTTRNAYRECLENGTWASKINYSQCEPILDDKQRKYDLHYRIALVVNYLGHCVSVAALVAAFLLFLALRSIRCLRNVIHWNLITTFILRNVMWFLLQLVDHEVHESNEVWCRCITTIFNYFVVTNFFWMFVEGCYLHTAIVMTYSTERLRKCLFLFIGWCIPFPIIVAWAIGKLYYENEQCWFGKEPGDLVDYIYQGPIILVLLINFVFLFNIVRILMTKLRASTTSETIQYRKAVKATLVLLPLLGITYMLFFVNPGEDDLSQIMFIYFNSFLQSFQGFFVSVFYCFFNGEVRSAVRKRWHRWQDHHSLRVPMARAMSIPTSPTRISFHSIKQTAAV
T2 sequence (P24387 whole entry): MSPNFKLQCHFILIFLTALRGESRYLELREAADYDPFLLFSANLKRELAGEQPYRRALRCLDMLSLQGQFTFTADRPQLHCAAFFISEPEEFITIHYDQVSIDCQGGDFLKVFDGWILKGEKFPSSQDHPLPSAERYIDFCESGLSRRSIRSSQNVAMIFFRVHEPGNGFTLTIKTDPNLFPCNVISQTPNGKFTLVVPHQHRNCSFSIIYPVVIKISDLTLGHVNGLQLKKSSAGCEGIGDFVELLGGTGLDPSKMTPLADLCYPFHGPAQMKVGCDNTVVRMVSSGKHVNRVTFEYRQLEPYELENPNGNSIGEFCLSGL

[3] = molecular target: T2, Corticotropin-releasing factor receptor 2/Corticotropin-releasing factor-binding protein; experiment: Dose Response confirmation of uHTS hits for small molecule antagonists of the CRF-binding protein and CRF-R2 receptor complex.; type: functional; conditions: read-out: IC50_Mean
[4] = inhibitors of SNCA 5'UTR-driven reporter translation, confirmation, H4 neuroglioma cells, luminescence (AID 1988); type: functional, cell-based
[5] = Luminescence Cell-Based Dose Response HTS to Identify Inhibitors of 5'UTR Stem-Loop Driven Prion Protein mRNA Translation in H4 Neuroglioblastoma Cells. [Related pubchem assays: 1827 (Project Summary), 1813 (Primary HTS)]; type: functional
[6] = inhibitors of firefly luciferase expression or activity, dose response, H4 neuroglioma cells, luminescence (AID 1990); type: functional, cell-based
[7] = molecular target: T3, Heat shock factor protein 1 (Mus musculus, UniProt P38532); experiment: HSF1 potentiators in luciferase reporter cells, confirmation, cell-based, NIH3T3, luminescence, dose retest (AID 435004); type: functional;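 also: stress induced by proteasome inhibitor MG132 added 30 min after compound; luciferase reporter driven by HSF1 response element in NIH3T3 cells; actives raise luminescence as potentiators of the MG132 stress response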
T3 sequence (P38532 whole entry): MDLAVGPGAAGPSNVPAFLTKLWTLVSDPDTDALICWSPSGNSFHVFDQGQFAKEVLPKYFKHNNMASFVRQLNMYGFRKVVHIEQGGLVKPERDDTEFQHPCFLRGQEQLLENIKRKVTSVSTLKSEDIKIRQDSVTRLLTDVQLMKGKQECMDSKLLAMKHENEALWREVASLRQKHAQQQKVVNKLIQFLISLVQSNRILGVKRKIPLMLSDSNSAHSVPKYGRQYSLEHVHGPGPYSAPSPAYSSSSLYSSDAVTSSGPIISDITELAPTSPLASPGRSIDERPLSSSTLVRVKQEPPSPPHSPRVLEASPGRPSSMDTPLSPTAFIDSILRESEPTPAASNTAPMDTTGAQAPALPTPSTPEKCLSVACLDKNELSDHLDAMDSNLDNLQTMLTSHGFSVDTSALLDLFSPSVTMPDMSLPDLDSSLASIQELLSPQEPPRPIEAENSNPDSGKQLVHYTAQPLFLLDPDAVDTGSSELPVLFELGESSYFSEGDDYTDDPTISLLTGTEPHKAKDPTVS

Streptococcus = experiment: Group A Streptococcus viability loss, dose response, counter-screen for streptokinase expression inhibitor project, luminescence, BacTiterGlo (AID 1915); type: functional, organism-based;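 also: potency for reduction of bacterial viability or growth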
[8] = test system: Streptococcus sp. 'group A'; experiment: growth inhibition of control SK(-) GAS strain, dose response, counter-screen for streptokinase expression inhibitor project, luminescence, kanamycin, BacTiterGlo, confirmation (AID 1900); type: functional, organism-based
BJ [9] = experiment: cells; type: functional, cell-based; conditions: Homo sapiens
BJ [10] = experiment: cytotoxicity toward BJ-TERT-LT-ST fibroblasts, dose response, cell-based, RAS-independent, luminescence (AID 1935); type: functional; conditions: Homo sapiens;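 also: BJ fibroblasts immortalized with TERT plus LT and ST oncogenes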
[11] = cytotoxicity toward DRD oncogenic fibroblasts, dose response, cell-based, non-viral oncogenic, luminescence (AID 1934); type: functional; conditions: Homo sapiens
BJ [12] = experiment: cytotoxicity toward BJ-TERT fibroblasts, dose response, cell-based, RAS-independent, luminescence (AID 1933); type: functional; conditions: Homo sapiens

Chain of Paired box protein Pax-8 (Q06710 whole entry): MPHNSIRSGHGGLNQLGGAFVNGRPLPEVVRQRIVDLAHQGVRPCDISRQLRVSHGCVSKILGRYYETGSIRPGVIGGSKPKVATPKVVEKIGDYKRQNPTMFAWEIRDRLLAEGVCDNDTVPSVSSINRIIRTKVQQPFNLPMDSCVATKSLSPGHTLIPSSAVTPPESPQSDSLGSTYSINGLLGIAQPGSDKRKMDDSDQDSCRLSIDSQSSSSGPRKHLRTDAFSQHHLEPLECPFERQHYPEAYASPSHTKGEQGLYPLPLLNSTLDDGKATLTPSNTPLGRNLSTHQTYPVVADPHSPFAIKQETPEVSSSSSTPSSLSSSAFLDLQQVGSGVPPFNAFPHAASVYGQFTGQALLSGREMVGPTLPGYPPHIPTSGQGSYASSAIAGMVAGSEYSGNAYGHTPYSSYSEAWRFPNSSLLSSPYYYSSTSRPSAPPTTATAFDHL

## O=c1c2cc(-c3ccccc3)sc2ncn1/N=C/c1ccco1
H4
  EC50: 56.4 µM (active)
Protein skinhead-1
  IC50: 22.1 µM (active)
[1]
  EC50: 14.8 µM (active)

## C[C@H]1CCCCO[C@H](CN(C)C(=O)Nc2ccc(C(F)(F)F)cc2)[C@@H](C)CN([C@@H](C)CO)C(=O)c2cc(NS(=O)(=O)c3cccs3)ccc2O1
Paired box protein Pax-8
  AC50: 7.75 µM (active)

## C[C@@H]1CN([C@@H](C)CO)C(=O)c2cccc(NC(=O)c3ccncc3)c2O[C@@H]1CN(C)S(=O)(=O)c1cccs1
Paired box protein Pax-8
  AC50: 69.5 µM (active)

## O=C(COC(=O)CC1c2ccccc2CCN1S(=O)(=O)c1ccc(F)cc1)Nc1ccccc1 (configuration not stated)
[2]
  EC50: > 53 µM (inactive)
[3]
  IC50: > 47.1 µM (inactive)

## COc1ccc(NC(=O)c2cc(C(=O)Nc3ccc(OC)cc3OC)cc([N+](=O)[O-])c2)c(OC)c1
[2]
  EC50: > 53 µM (inactive)
[3]
  IC50: > 47.1 µM (inactive)

## O=S(=O)(c1ccc(F)cc1)N1C[C@H]2[C@@H](c3ccccc31)[C@H](CO)N2Cc1ccccc1Cl
Paired box protein Pax-8
  AC50: 11 µM (active)

## O=C(c1ccc(Br)cc1)N1CCN(c2ncccn2)CC1
[2]
  EC50: > 53 µM (inactive)
[3]
  IC50: > 47.1 µM (inactive)

## CN(C)c1ccc(/C=C(/C#N)C(=O)Nc2nc3c(s2)CCN(Cc2ccccc2)C3)cc1
[2]
  EC50: 2.1 µM (active)
Protein skinhead-1
  IC50: > 100 µM (inactive)

## CCn1c2ccc(F)cc2c2nc3ccccc3nc21
Protein skinhead-1
  IC50: > 100 µM (inactive)

## COc1ccc(CN(Cc2cc3cc4c(cc3nc2O)OCO4)C(=O)NC2CCCCC2)cc1
[4]
  EC50: > 120 µM (not active)
[5]
  EC50: > 120 µM (not active)
[6]
  EC50: 17.8 µM (active)

## O=C(c1ccc2c(=O)n3c(nc2c1)CCCCC3)N1CCN(C(c2ccccc2)c2ccccc2)CC1
[7]
  EC50: > 260 µM (inactive)
[4]
  EC50: 24.1 µM (active)
[5]
  EC50: 28.3 µM (active)
[6]
  EC50: 12.7 µM (active)

## CC(=O)Nc1ccc(NC(=O)CN(c2ccc(C(C)C)cc2)S(=O)(=O)c2ccccc2)cc1
[4]
  EC50: > 120 µM (not active)
[5]
  EC50: > 120 µM (not active)
[6]
  EC50: > 120 µM (not active)

## C=CCN(c1ccc(C(=O)NC(C)C)cc1)S(C)(=O)=O
Protein skinhead-1
  IC50: > 100 µM (inactive)

## O=[N+]([O-])c1ccc(COc2cccc3cccnc23)cc1
Protein skinhead-1
  IC50: > 100 µM (inactive)

## CCn1ncc(C(=O)Nc2ccc([N+](=O)[O-])cc2OC)c1C
[2]
  EC50: > 53 µM (inactive)
[3]
  IC50: > 47.1 µM (inactive)

## CC(=O)NCCc1cc2cc(C)c(C)cc2nc1O
Protein skinhead-1
  IC50: > 100 µM (inactive)

## CCCCN(CC)S(=O)(=O)c1ccc(C(=O)Nc2nnc(-c3ccccc3Cl)o2)cc1
Streptococcus
  EC50: 0.737 µM (active)
[4]
  EC50: 10 µM (active)
[8]
  EC50: 0.2 µM (active)
[5]
  EC50: 12.1 µM (active)
[6]
  EC50: 11.9 µM (active)

## COc1cc(/C=N/NC(=O)c2ccc(CN3C(=O)c4cccc5cccc3c45)cc2)cc(OC)c1O
Paired box protein Pax-8
  AC50: 0.286 µM (active)

## CCCC1(CCC)NC(=O)N(CC(=O)Nc2ccc(Cl)c(S(=O)(=O)N3CCOCC3)c2)C1=O
[2]
  EC50: > 53 µM (inactive)
[3]
  IC50: > 47.1 µM (inactive)

## CC(C1CC1)N(Cc1ccccc1)C(S)=Nc1cccc(C(F)(F)F)c1 (configuration not stated)
Paired box protein Pax-8
  AC50: 33.2 µM (active)

## C=C(C)c1cccc(C(C)(C)NC(=O)N2CCN(c3ccccc3OC)CC2)c1
Paired box protein Pax-8
  AC50: 65.2 µM (active)

## O=C(N/N=C/c1ccccc1O)c1cccc2ccccc12
Streptococcus
  EC50: 6.12 µM (active)
[4]
  EC50: 6.71 µM (active)
[8]
  EC50: 1.58 µM (active)
[5]
  EC50: 17.1 µM (active)
[6]
  EC50: 2.12 µM (active)

## Cc1cc(C(=O)CN2C(=O)NC3(CCCc4ccccc43)C2=O)c(C)n1Cc1ccccc1 (configuration not stated)
Protein skinhead-1
  IC50: > 100 µM (inactive)

## CC/N=C1\S/C(=C\c2ccc(Sc3ccc(Cl)cc3)o2)C(=O)N1CC
[4]
  EC50: > 120 µM (not active)
[5]
  EC50: > 120 µM (not active)
[6]
  EC50: 21.4 µM (active)

## CCCCc1nnc2c(N(C)S(=O)(=O)c3ccccc3)nc3ccccc3n12
[2]
  EC50: > 53 µM (inactive)
[3]
  IC50: > 47.1 µM (inactive)

## N#C/C(=C\c1cccnc1)c1ccc(Br)cc1
Protein skinhead-1
  IC50: > 100 µM (inactive)

## COc1ccc(S(=O)(=O)NNC(=O)c2csc(-n3nc(C)cc3C(F)(F)F)n2)cc1
[2]
  EC50: > 53 µM (inactive)
[3]
  IC50: > 47.1 µM (inactive)

## C/C=C/Cn1c(Br)nc2c1c(=O)n(C)c(=O)n2C
[4]
  EC50: 59.3 µM (active)
[5]
  EC50: > 120 µM (not active)
[6]
  EC50: > 120 µM (not active)

## COc1nc(-c2ccccc2)ccc1-c1noc(-c2ccco2)n1
Protein skinhead-1
  IC50: > 100 µM (inactive)

## Cc1cc(N2CCN(Cc3cn(C)nc3-c3cccc(Cl)c3)CC2)cc(C)n1
BJ [9]
  EC50: 18.7 µM (active)
BJ [10]
  EC50: > 150 µM (inconclusive)
[4]
  EC50: 10.6 µM (active)
[5]
  EC50: 8.87 µM (active)
[11]
  EC50: 11.8 µM (active)
[6]
  EC50: 10.4 µM (active)
BJ [12]
  EC50: 11.3 µM (active)

## Cc1nn(C(C)C(=O)O)c(=O)c2ccccc12 (configuration not stated)
[2]
  EC50: > 53 µM (inactive)
[3]
  IC50: > 47.1 µM (inactive)

From ChEMBL document CHEMBL1201862, “PubChem BioAssay data set” (2004)
